Reference: ChEMBL document CHEMBL3045398, “Fungicidal activities of cyflufenamid against various plant-pathogenic fungi” (J Pestic Sci, 2006)
Active and inactive are the calls of the source. The calls are words filed in the database; no cut-off is given here.

Assays:
Pyricularia oryzae = test: Fungicidal activity against Magnaporthe oryzae assessed as inhibition of mycelial growth measured after 3 to 20 days by agar dilution method; type: functional, organism-based
Phytophthora infestans = test: Fungicidal activity against Phytophthora infestans assessed as inhibition of mycelial growth measured after 3 to 20 days by agar dilution method; type: functional, organism-based
Penicillium italicum = test: Fungicidal activity against Penicillium italicum assessed as inhibition of mycelial growth measured after 3 to 20 days by agar dilution method; type: functional, organism-based
Monilinia fructicola [1] = test: Fungicidal activity against Monilinia fructicola assessed as inhibition of mycelial growth measured after 3 to 20 days by agar dilution method; type: functional, organism-based
[2] = test system: Blumeria graminis f. sp. tritici; test: Fungicidal activity against Blumeria graminis f. sp. tritici on wheat leaves assessed as spore formation measured at 12.5 ppm; type: functional
Monilinia fructicola [3] = test: Fungicidal activity against Monilinia fructicola assessed as vacuolated hyphae measured by Transmission electron microscopy; type: functional, organism-based
Monilinia fructicola [4] = test: Fungicidal activity against Monilinia fructicola assessed as number and shape of mitochondria measured by Transmission electron microscopy relative to untreated control; type: functional, organism-based
[5] = test system: Blumeria graminis f. sp. tritici; test: Fungicidal activity against Blumeria graminis f. sp. tritici on wheat leaves assessed as spore formation measured at 0.2 ppm; type: functional
[6] = test system: Blumeria graminis f. sp. tritici; test: Fungicidal activity against Blumeria graminis f. sp. tritici on wheat leaves assessed as spore formation measured at 0.8 ppm; type: functional
[7] = test system: Blumeria graminis f. sp. tritici; test: Fungicidal activity against Blumeria graminis f. sp. tritici on wheat leaves assessed as spore formation measured at 3.1 ppm; type: functional
[8] = test system: Blumeria graminis f. sp. tritici; test: Fungicidal activity against Blumeria graminis f. sp. tritici on wheat leaves assessed as rate of appressorium formation measured at 12.5 ppm after 12 hr (reference value: 22.3 +/- 10.2%); type: functional
[9] = test system: Blumeria graminis f. sp. tritici; test: Fungicidal activity against Blumeria graminis f. sp. tritici on wheat leaves assessed as rate of appressorium formation measured at 12.5 ppm after 6 hr (reference value: 3.5 +/- 2.5%); type: functional
[10] = test system: Blumeria graminis f. sp. tritici; test: Fungicidal activity against Blumeria graminis f. sp. tritici on wheat leaves assessed as rate of spore germination measured at 12.5 ppm after 24 hr (reference value: 72.2 +/- 4.2%); type: functional
[11] = test system: Blumeria graminis f. sp. tritici; test: Fungicidal activity against Blumeria graminis f. sp. tritici on wheat leaves assessed as rate of spore germination measured at 12.5 ppm after 12 hr (reference value: 67.4 +/- 8.6%); type: functional
[12] = test system: Blumeria graminis f. sp. tritici; test: Fungicidal activity against Blumeria graminis f. sp. tritici on wheat leaves assessed as rate of spore germination measured at 12.5 ppm after 6 hr (reference value: 49.8 +/- 17.3%); type: functional
[13] = test system: Blumeria graminis f. sp. tritici; test: Fungicidal activity against Blumeria graminis f. sp. tritici on wheat leaves assessed as rate of spore germination measured at 12.5 ppm after 3 hr (reference value: 22.5 +/- 7.6%); type: functional
Verticillium dahliae = test: Fungicidal activity against Verticillium dahliae assessed as inhibition of mycelial growth measured after 3 to 20 days by agar dilution method; type: functional, organism-based
Venturia inaequalis = test: Fungicidal activity against Venturia inaequalis assessed as inhibition of mycelial growth measured after 3 to 20 days by agar dilution method; type: functional, organism-based
Parastagonospora nodorum = test: Fungicidal activity against Phaeosphaeria nodorum assessed as inhibition of mycelial growth measured after 3 to 20 days by agar dilution method; type: functional, organism-based
Rosellinia necatrix = test: Fungicidal activity against Rosellinia necatrix assessed as inhibition of mycelial growth measured after 3 to 20 days by agar dilution method; type: functional, organism-based
Rhizoctonia solani = test: Fungicidal activity against Rhizoctonia solani assessed as inhibition of mycelial growth measured after 3 to 20 days by agar dilution method; type: functional, organism-based
Pythium aphanidermatum = test: Fungicidal activity against Pythium aphanidermatum assessed as inhibition of mycelial growth measured after 3 to 20 days by agar dilution method; type: functional, organism-based
[14] = test system: Blumeria graminis f. sp. tritici; test: Fungicidal activity against Blumeria graminis f. sp. tritici on wheat leaves assessed as colony formation measured at 0.2 ppm; type: functional
[15] = test system: Blumeria graminis f. sp. tritici; test: Fungicidal activity against Blumeria graminis f. sp. tritici on wheat leaves assessed as colony formation measured at 3.1 ppm; type: functional
[16] = test system: Blumeria graminis f. sp. tritici; test: Fungicidal activity against Blumeria graminis f. sp. tritici on wheat leaves assessed as rate of appressorium formation measured at 3.1 ppm after 168 hr; type: functional
[17] = test system: Blumeria graminis f. sp. tritici; test: Fungicidal activity against Blumeria graminis f. sp. tritici on wheat leaves assessed as rate of appressorium formation measured at 12.5 ppm after 168 hr; type: functional
[18] = test system: Colletotrichum gloeosporioides; test: Fungicidal activity against Glomerella cingulata assessed as inhibition of mycelial growth measured after 3 to 20 days by agar dilution method; type: functional, organism-based
Fusarium graminearum = test: Fungicidal activity against Fusarium graminearum assessed as inhibition of mycelial growth measured after 3 to 20 days by agar dilution method; type: functional, organism-based
Fusarium oxysporum = test: Fungicidal activity against Fusarium oxysporum assessed as inhibition of mycelial growth measured after 3 to 20 days by agar dilution method; type: functional, organism-based
Microdochium nivale = test: Fungicidal activity against Microdochium nivale assessed as inhibition of mycelial growth measured after 3 to 20 days by agar dilution method; type: functional, organism-based
Diaporthe citri = test: Fungicidal activity against Diaporthe citri assessed as inhibition of mycelial growth measured after 3 to 20 days by agar dilution method; type: functional, organism-based
Cercospora = test: Fungicidal activity against Cercospora theae assessed as inhibition of mycelial growth measured after 3 to 20 days by agar dilution method; type: functional, organism-based
Cladosporium cucumerinum = test: Fungicidal activity against Cladosporium cucumerinum assessed as inhibition of mycelial growth measured after 3 to 20 days by agar dilution method; type: functional, organism-based
Botrytis squamosa = test: Fungicidal activity against Botryotinia squamosa assessed as inhibition of mycelial growth measured after 3 to 20 days by agar dilution method; type: functional, organism-based
Botryosphaeria = test: Fungicidal activity against Botryosphaeria sp. assessed as inhibition of mycelial growth measured after 3 to 20 days by agar dilution method; type: functional, organism-based
Alternaria alternata = test: Fungicidal activity against Alternaria alternata apple pathotype assessed as inhibition of mycelial growth measured after 3 to 20 days by agar dilution method; type: functional, organism-based
Podosphaera leucotricha = test: Fungicidal activity against Podosphaera leucotricha in apple assessed as powdery mildew disease control measured after 7 to 10 days by pot test; type: functional
[19] = test system: Blumeria graminis f. sp. tritici; test: Fungicidal activity against Blumeria graminis f. sp. tritici in wheat assessed as powdery mildew disease control measured after 7 to 10 days by pot test; type: functional
Podosphaera fusca = test: Fungicidal activity against Sphaerotheca cucurbitae in cucumber assessed as powdery mildew disease control measured after 7 to 10 days by pot test; type: functional
[20] = test system: Blumeria graminis f. sp. tritici; test: Fungicidal activity against Blumeria graminis f. sp. tritici on wheat (Triticum aestivum, cv. Chihoku) assessed as powdery mildew disease control at 0.2 ppm measured after 5 to 10 days; type: functional
[21] = test system: Blumeria graminis f. sp. tritici; test: Fungicidal activity against Blumeria graminis f. sp. tritici on wheat (Triticum aestivum, cv. Chihoku) assessed as powdery mildew disease control at 0.8 ppm measured after 5 to 10 days; type: functional

**Q.** Which EC50 (Pyricularia oryzae) does the source give for `O=C(Cc1ccccc1)N/C(=N\OCC1CC1)c1c(C(F)(F)F)ccc(F)c1F` [CYFLUFENAMID] here?
**A.** The EC50 was 3 ppm.

**Q.** What about the EC50 (Phytophthora infestans) of the same molecule?
**A.** Its EC50 is greater than 100 ppm.

**Q.** What about the EC50 (Penicillium italicum) of the same molecule?
**A.** The EC50 was 7 ppm.

**Q.** What about the EC50 (Monilinia fructicola [1]) of the same molecule?
**A.** The EC50 was 0.01 ppm.

**Q.** And the inhibition at 12.5 ppm [2]?
**A.** The inhibition at 12.5 ppm was 100%.

**Q.** And the Activity (Monilinia fructicola [3])?
**A.** Its Activity is “Active”.

**Q.** What about the Activity (Monilinia fructicola [4]) of the same molecule?
**A.** Its Activity is “inactive”.

**Q.** What about the inhibition at 0.2 ppm [5] of the same molecule?
**A.** Its inhibition at 0.2 ppm is 97%.

**Q.** And the inhibition at 0.8 ppm [6]?
**A.** The inhibition at 0.8 ppm was 100%.

**Q.** What about the inhibition at 3.1 ppm [7] of the same molecule?
**A.** The inhibition at 3.1 ppm was 100%.

**Q.** And the Activity [8]?
**A.** The Activity was 28.1%.

**Q.** And the Activity [9]?
**A.** The Activity was 0.4%.

**Q.** And the Activity [10]?
**A.** Its Activity is 61.5%.

**Q.** And the Activity [11]?
**A.** Its Activity is 60.7%.

**Q.** What about the Activity [12] of the same molecule?
**A.** The Activity was 47.6%.

**Q.** And the Activity [13]?
**A.** The Activity was 19.8%.

**Q.** And the EC50 (Verticillium dahliae)?
**A.** Its EC50 is greater than 100 ppm.

**Q.** What about the EC50 (Venturia inaequalis) of the same molecule?
**A.** Its EC50 is greater than 100 ppm.

**Q.** And the EC50 (Parastagonospora nodorum)?
**A.** The EC50 was greater than 100 ppm.

**Q.** What about the EC50 (Rosellinia necatrix) of the same molecule?
**A.** The EC50 was 0.7 ppm.

**Q.** What about the EC50 (Rhizoctonia solani) of the same molecule?
**A.** The EC50 was greater than 100 ppm.

**Q.** What about the EC50 (Pythium aphanidermatum) of the same molecule?
**A.** Its EC50 is greater than 100 ppm.

**Q.** And the inhibition at 0.2 ppm [14]?
**A.** Its inhibition at 0.2 ppm is 81.2%.

**Q.** What about the inhibition at 3.1 ppm [15] of the same molecule?
**A.** The inhibition at 3.1 ppm was 100%.

**Q.** What about the inhibition at 3.1 ppm [16] of the same molecule?
**A.** Its inhibition at 3.1 ppm is 99.9%.

**Q.** What about the inhibition at 12.5 ppm [17] of the same molecule?
**A.** Its inhibition at 12.5 ppm is 100%.

**Q.** What about the EC50 [18] of the same molecule?
**A.** The EC50 was greater than 100 ppm.

**Q.** What about the EC50 (Fusarium graminearum) of the same molecule?
**A.** The EC50 was greater than 100 ppm.

**Q.** And the EC50 (Fusarium oxysporum)?
**A.** The EC50 was greater than 100 ppm.

**Q.** And the EC50 (Microdochium nivale)?
**A.** The EC50 was 0.3 ppm.

**Q.** What about the EC50 (Diaporthe citri) of the same molecule?
**A.** Its EC50 is 6 ppm.

**Q.** And the EC50 (Cercospora)?
**A.** Its EC50 is greater than 100 ppm.

**Q.** And the EC50 (Cladosporium cucumerinum)?
**A.** Its EC50 is greater than 100 ppm.

**Q.** And the EC50 (Botrytis squamosa)?
**A.** The EC50 was greater than 100 ppm.

**Q.** What about the EC50 (Botryosphaeria) of the same molecule?
**A.** Its EC50 is 0.07 ppm.

**Q.** And the EC50 (Alternaria alternata)?
**A.** Its EC50 is greater than 100 ppm.

**Q.** And the MIC (Podosphaera leucotricha)?
**A.** Its MIC is less than 1.6 µg/mL.

**Q.** And the MIC [19]?
**A.** The MIC was less than 0.8 µg/mL.

**Q.** And the MIC (Podosphaera fusca)?
**A.** Its MIC is less than 0.8 µg/mL.

**Q.** And the Efficacy [20]?
**A.** The Efficacy was 66%.

**Q.** What about the Efficacy [21] of the same molecule?
**A.** The Efficacy was 100%.
